Assay results published in US11920126B2, “Bio-manufacturing process” (priority 2018, dated 2024).

Key:
Ascomycete contaminants = assay: natamycin inhibition, in vitro liquid media culture; type: cell-based; conditions: cultured in vitro (liquid media)
Source text: Streptomyces natalensis naturally produces low levels of pimaricin, also known as natamycin, which is a fungicide with the ability to bind to sterols found in fungal cell membranes, thus making the cell wall permeable and lysing the cell. This fungicide has greater activity against Ascomycete contaminants, versus production fungi Ganoderma or Trametes. Natamycin's affinity for non-basidiomycetes species make this particular antifungal an attractive target for expression during cultivated manufacturing.
By up-regulating the expression of pimM, the total yield of natamycin produced by our Streptomyces natalensis strains was increased. In this respect, natamycin production in wild type Streptomyces natalensis […] the effective range of inhibition (5 ug/mL) when cultured in vitro (liquid media). […] Engineering a bacterium strain with increased natamycin potency helps to reduce the bacterial loading needed for substrate bioburden mitigation, thus further reducing process and material cost.

Trichoderma = assay: Trichoderma-loaded feedstocks co-cultured with engineered Streptomyces; type: cell-based; conditions: feedstocks loaded with Trichoderma spores, no production fungus
Experimental: The efficacy of inhibitory properties was tested in feedstocks without the addition of the fungus. Feedstocks were loaded with Trichoderma spores, a common mold contaminate. Engineered Streptomyces was then co-cultured in these contaminated feedstocks, and the inhibitory effects were recorded.

C[C@@H]1C/C=C/C=C/C=C/C=C/[C@H](O[C@@H]2O[C@H](C)[C@@H](O)[C@H](N)[C@@H]2O)C[C@@H]2O[C@](O)(C[C@@H](O)C[C@H]3O[C@@H]3/C=C/C(=O)O1)C[C@H](O)[C@H]2C(=O)O [natamycin]
effective range of inhibition (Ascomycete contaminants): 5 µg/mL | inhibitory effect of Trichoderma in feedstocks as a function of natamycin expression (Trichoderma): strong linear inhibitory effect
